Measurements: patent US5756458A, “Stabilized potent GRF analogs” (Pharmacia & Upjohn Company, priority 1995, dated 1998)
Read-outs that look alike come from different tables or passages of the source. Where no end group is shown, it is not given here.

Key:
[1] = In vitro stability in bovine plasma; format: in vitro ADME
Description: | ^.noteq. Peptides at 0.03 mM were incubated with bovine plasma at | 37° C. for one hr. Aliquots of 0.1 ml were quenched with 2 ml of | 0.2% aqueous trifluoroacetic acid solution and subjected to solid phase | extraction and HPLC analysis as described in T.M. Kubiak et al. Drug Met. | Disp. 17, 393-397 (1989).

Steers [2] = format: in vivo, steer
Description: | ^# Steers were injected iv with peptides at the dose of 0.01 nmol/kg | and the procedures were as described in W.M. Moseley et al. J. Endocr. | 117, 253-259 (1988). Relative potency was calculated on the basis of the | area under serum growth hormone (GH) curve monitored for 2 hrs after | treatment.

Steers [3] = format: in vivo, steer; conditions: STUDY II, subcutaneous 0.75 nmol/kg, area under serum GH curve, 6 hrs after treatment, bGRF(1-44)NH2 = 100
Description: | ^.sctn. Steers were injected subcutaneously with peptides at the dose | of 0.75 nmol/kg. Relative potency was calculated on the basis of the area | under serum GH curve monitored for 6 hrs after treatment.

[4] = tested on: rat pituitary cell cultures; assay: Growth hormone (GH) release in rat pituitary cell cultures in vitro (FIG. 1); format: cell-based; conditions: Leu^27 -bGRF(1-29)NH2 assay standard
Description: Effect of analogs of Thr^2, Ala^15, Leu^27 -bGRF(1-29)NH2 on growth hormone (GH) release in rat pituitary cell cultures in vitro. The assay was performed according to procedure of Frohman and Downs, Methods Enzymol. 124, 371-389 (1986). […] Leu^27 -bGRF(1-29)NH2 was used as the assay standard.

[5] = tested on: primary cultures of rat anterior pituitary cells; conditions: GH secretion; cited from earlier work
meal-fed Holstein steers = assay: Mean serum GH in meal-fed Holstein steers after intravenous injection (FIG. 2); format: in vivo; conditions: dose of 0.01 nmol/kg (10 pmol/kg)
Description: The enhanced in vivo potency of the compounds of this invention where R19 is Val or Ile is illustrated in FIGS. 1 and 2.
Mean concentration of serum growth hormone (GH) in meal-fed Holstein steers after intravenous injection (10 pmol/kg) of GRF analogs. The assay was performed as described by Moseley et al., J. Endocrinol. 117, 252-259 (1988). Bovine GRF(1-44)NH2 was used as the assay standard.

plasma DPP-IV = biological target: T1, plasma DPP-IV (Bos taurus, UniProt P81425); assay: Cleavage after residue 2 by plasma DPP-IV on incubation in bovine plasma in vitro; format: in vitro ADME; parameters: Cleavage after residue 2 (footnote mark ++): key to the marks not given beside the values
T1 construct: from tissue; host or cells: bovine plasma (two different plasma pools)
T1 sequence (P81425 38-765 limits assumed): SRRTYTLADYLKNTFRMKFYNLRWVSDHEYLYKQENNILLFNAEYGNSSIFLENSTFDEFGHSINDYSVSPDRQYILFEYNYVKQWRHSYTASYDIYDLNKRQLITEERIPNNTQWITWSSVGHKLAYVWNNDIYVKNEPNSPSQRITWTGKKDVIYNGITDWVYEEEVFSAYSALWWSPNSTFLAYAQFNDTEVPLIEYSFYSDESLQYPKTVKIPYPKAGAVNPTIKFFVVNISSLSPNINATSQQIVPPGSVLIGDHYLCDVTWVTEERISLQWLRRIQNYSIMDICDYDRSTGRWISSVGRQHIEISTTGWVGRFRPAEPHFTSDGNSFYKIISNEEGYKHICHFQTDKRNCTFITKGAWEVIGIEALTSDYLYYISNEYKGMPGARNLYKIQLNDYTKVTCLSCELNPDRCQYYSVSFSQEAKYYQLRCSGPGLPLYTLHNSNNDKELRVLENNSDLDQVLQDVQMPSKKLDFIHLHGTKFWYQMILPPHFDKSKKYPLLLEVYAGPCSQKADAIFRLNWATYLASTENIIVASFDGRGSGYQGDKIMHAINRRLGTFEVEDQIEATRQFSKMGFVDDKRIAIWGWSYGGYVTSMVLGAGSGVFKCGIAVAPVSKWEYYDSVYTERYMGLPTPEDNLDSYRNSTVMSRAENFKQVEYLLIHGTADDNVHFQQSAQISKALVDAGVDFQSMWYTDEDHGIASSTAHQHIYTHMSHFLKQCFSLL
Description: Evidence of the improved metabolic stability of the compounds of this invention (when compared to native GRF) is illustrated in Table I by the in vitro stability data provided. It is noteworthy that in bovine plasma in vitro, the analogs having Thr^2, Val^2, Ile^2 or Leu^2 were not cleaved after residue 2 by plasma DPP-IV under the experimental conditions used in the study (one hour plasma incubation).
++ No cleavage after residue 2 was observed upon incubation in bovine
plasma in vitro over a 1 hr incubation period.

[6] = bovine plasma, STUDY II, plasma pool 2, peptide 0.03 mM, bovine plasma, 37° C., one hr, read-out: In vitro stability (% Inact peptide after 1 hr)
[7] = bovine plasma, STUDY I, plasma pool 1, peptide 0.03 mM, bovine plasma, 37° C., one hr, read-out: In vitro stability (% Inact peptide after 1 hr)

With “H-YIDAIFTNSYRKVLAQLSARKLLQDILNR-NH2 [Ile^2,Ala^15,Leu^27-bGRF(1-29)NH2]” the remaining at 1 h, 0.03 mM [1, 6] was 80.3%, the “Expected potency relative to isomer Leu^2 Ala^15 Leu^27 bGRF(1-29)NH2 when the ED50 of each is determined and compared” value (Steers [2]; extrapolated from relative in vivo potency at 0.01 nmol/kg, ED50 not determined) was 10-20 times and the “In vivo relative potency sc” value (Steers [3]) was 16c.

For “YTDAIFTNSYRKVLAQLSLRKLLQDILNR-NH2 [Leu^19]”, the “GH-releasing bioactivity in vitro as compared with Thr^2, Ala^15, Leu^27 -bGRF(1-29)NH2” value [4] was “deleterious”.

In the case of “H-Tyr-Ala-Asp-Ala-Ile-Phe-Ser-Ser-Ala-Tyr-Arg-Arg-Leu-Leu-Ala-Gln-Leu-Ala- Ser-Arg-Arg-Leu-Leu-Gln-Glu-Leu-Leu-Ala-Arg-NH2 /OH [amide analog] (H-YADAIFSSAYRRLLAQLASRRLLQELLAR-NH2) [29-amino acid analog of hGRF designed by G. Velicelebi, et al., amide form]”, the “Potency relative to hGRF(1-40)OH (times as potent)” value [5] is listed as 1.57.

“YADAIFTNSYRKVLAQLSARKLLQDILNR-NH2 [Ala^15,Leu^27-bGRF(1-29)NH2, reference compound]” gave a remaining at 1 h, 0.03 mM [1, 7] of 56.2%.

In the case of YTDAIFTNSYRKVLAQLSIRKLLQDILNR-NH2, the “In vivo bioactivity compared with native GRF” value (meal-fed Holstein steers) is reported as “more bioactive than the native GRF” and the “GH-releasing bioactivity in vitro as compared with Thr^2, Ala^15, Leu^27 -bGRF(1-29)NH2” value [4] is reported as “unchanged”.

“H-YVDAIFTNSYRKVLAQLSARKLLQDILNR-NH2 [Val^2,Ala^15,Leu^27-bGRF(1-29)NH2]” showed a remaining at 1 h, 0.03 mM [1, 6] of 83.4%.

“YADAIFTNSYRKVLGQLSARKLLQDILNR-NH2 [Leu^27-bGRF(1-29)NH2, reference compound]” showed a remaining at 1 h, 0.03 mM [1, 7] of 39.8% and a remaining at 1 h, 0.03 mM [1, 6] of 46.8%.

With bGRF(1-14)NH2 [reference compound] the “In vivo relative potency iv” value (Steers [2]; STUDY I, steers, iv 0.01 nmol/kg, area under serum GH curve, 2 hrs after treatment, native bGRF standard = 100) was 100.

Substance “YLDAIFTNSYRKVLAQLSARKLLQDILNR-NH2 [Leu^2,Ala^15,Leu^27-bGRF(1-29)NH2, reference compound]” has a remaining at 1 h, 0.03 mM [1, 6] of 86.3%.

With “H-YTDAIFTNSYRKVLAQLSARKLLQDILNR-NH2 [Thr^2,Ala^15,Leu^27-bGRF(1-29)NH2]” the “Cleavage after residue 2 (footnote mark ++)” value (plasma DPP-IV) was “++”, the DPP-IV related cleavage (plasma DPP-IV) was “slight DPP-IV related cleavage” and the remaining at 1 h, 0.03 mM ([1]; plasma, In vitro stability (% Inact peptide after 1 hr)) was 91.1%.

For “YTDAIFTNSYRKVLGQLSARKLLQDILNR-NH2 [Thr^2,Leu^27-bGRF(1-29)NH2]”, the remaining at 1 h, 0.03 mM [1, 7] was 75.6%.

For H-YTDAIFTNSYRKVLAQLSVRKLLQDILNR-NH2, the “In vivo bioactivity compared with native GRF” value (meal-fed Holstein steers) was “more bioactive than the native GRF” and the “GH-releasing bioactivity in vitro as compared with Thr^2, Ala^15, Leu^27 -bGRF(1-29)NH2” value [4] was “increased”.

In the case of “H-Tyr-Ala-Asp-Ala-Ile-Phe-Ser-Ser-Ala-Tyr-Arg-Arg-Leu-Leu-Ala-Gln-Leu-Ala- Ser-Arg-Arg-Leu-Leu-Gln-Glu-Leu-Leu-Ala-Arg-NH2 /OH [free acid form] (H-YADAIFSSAYRRLLAQLASRRLLQELLAR-OH) [29-amino acid analog of hGRF designed by G. Velicelebi, et al., free acid form]”, the “Potency relative to hGRF(1-40)OH (times as potent)” value [5] is listed as 1/6.
